Test results: US7048907B2, “Synthesis, compositions and methods for the measurement of the concentration of stable-isotope labeled compounds in life forms and life form excretory products” (BioPhysics Assay Laboratory, Inc., priority 2001, dated 2006)

Key:
[1] = Assay of chelate on carboxymethyl (CM) Sephadex column (chelate formation, charge); assay type: physicochemical
[2] = Stability of chelates to autoclaving (CM-Sephadex assay); assay type: physicochemical; conditions: for % of total / dpm: autoclaved 30 minutes at 121° C.
Protocol: A sample comprising 5 ml of Sm-DTPA, La-DTPA, and Eu-DTPA prepared in Examples 9, 10, and 11 were placed in 10 ml glass bottles, each capped with a grey butyl rubber cap, and the caps were crimped. Samples were autoclaved for 30 minutes at 121° C.
Five ml of each of Sm-DOTA, La-DOTA, and Eu-DOTA prepared in Examples 13, 14, and 15 were placed in 10 ml glass bottles capped with a grey butyl rubber cap and crimped. Samples were autoclaved for 30 minutes at 121° C. Samples were allowed to cool to room temperature and were assayed as described in Examples 25.

[3] = Kinetics of blood depletion and urine accumulation of chelates in the rat; assay type: in vivo; conditions: average of three rats
Protocol: One half ml of Sm-DTPA (0.01 mg/kg), dissolved in saline (pH 7), is injected into the tail vein of three rats. Samples of blood are obtained at 10, 30 and 60 minutes following injection and analyzed for Sm-DTPA by neutron activation. The percent of starting amount of the Sm-DTPA at each time interval is presented in Table 18 (last column on right). Similarly, the accumulation of Sm-DTPA in the rat urine at two times is shown in the last column of Table 18.
One half ml of Technetium-99m-DTPA (1 millicurie), Gd-DTPA (0.05 mg/kg), and Sm-DTPA (0.01 mg/kg) are each dissolved in saline (pH 7), and are injected simultaneously into the tail vein of three rats. Samples of blood are obtained at 10, 30 and 60 minutes following injection and analyzed for ^99mTc-DTPA (gamma counting), Gd-DTPA (T1 relaxation) and Sm-DTPA (neutron activation).
One half ml of Sm-DTPA, La-DTPA and Eu-DTPA (each 0.01 mg/kg), dissolved in saline (pH 7) are injected simultaneously into the tail vein of three rats. Samples of blood are obtained at 10, 30 and 60 minutes following injection and analyzed for each element by neutron activation.
Samples of Sm-DTPA, La-DTPA and Eu-DTPA (0.5 ml; 0.01 mg/kg), each dissolved in saline (pH 7), are injected sequentially at 0, 20, and 40 minutes into the tail vein of three rats. Samples of blood are obtained at 10, 30 and 60 min following each injection and analyzed for each element by neutron activation.

[4] = Fraction 1: 3 ml 0.01M Tris pH 7.5 before sample
[5] = Fraction 2: 1 ml sample then 3 ml 0.01M Tris pH 7.5 (eluate)
[6] = Fraction 3: further 3 ml 0.01M Tris pH 7.5
[7] = Fraction 4: column and contents (retained)
[8] = Fraction 1: sample diluted 1:10 then 2-3 ml 0.01M Tris pH 7.5 (eluate)
[9] = Fraction 2: 3 ml 0.01M Tris pH 7.5
[10] = Fraction 3: column and contents (retained)

O=C([O-])CN(CCN(CC(=O)[O-])CC(=O)[O-])CCN(CC(=O)[O-])CC(=O)[O-].[Sm+3] [Sm-DTPA]
% eluted from the CM-Sephadex column [1]: 98% | % of total [1, 4]: 0 % of total | dpm [1, 4]: 0 dpm | % of total [1, 5]: 97 % of total | dpm [1, 5]: 148208 dpm | % of total [1, 6]: 1 % of total | dpm [1, 6]: 19089 dpm | % of total [1, 7]: 2 % of total | dpm [1, 7]: 24257 dpm | time within which the chelate forms ([1]; room temperature, Tris pH 7.5): ≤ 5 min | % eluted from CM-Sephadex column following autoclaving [2]: 100% | % of total [2, 8]: 98 % of total | dpm [2, 8]: 1128928 dpm | % of total [2, 9]: 2 % of total | dpm [2, 9]: 26387 dpm | % of total [2, 10]: 0 % of total | dpm [2, 10]: 1867 dpm | Percent of initial injection, blood ([3]; blood 10 min, Sm-DTPA 0.01 mg/kg i.v. administered alone (Example 29)): 86% of initial injection | Percent of initial injection, blood ([3]; blood 10 min, Sm-DTPA, La-DTPA and Eu-DTPA (each 0.01 mg/kg i.v.) simultaneously administered (Example 31)): 83% of initial injection | Percent of initial injection, blood ([3]; blood 10 min after each injection, Sm-DTPA, La-DTPA, Eu-DTPA (0.01 mg/kg i.v.) sequentially administered at 0, 20, 40 minutes (Example 32)): 81% of initial injection | Percent of initial injection, blood ([3]; blood 10 min after i.v. injection, ^99mTc-DTPA, Gd-DTPA and Sm-DTPA simultaneously administered (Example 30)): 88% of initial injection | Percent of initial injection, blood ([3]; blood 30 min, Sm-DTPA 0.01 mg/kg i.v. administered alone (Example 29)): 61% of initial injection | Percent of initial injection, blood ([3]; blood 30 min, Sm-DTPA, La-DTPA and Eu-DTPA simultaneously administered (Example 31)): 61% of initial injection | Percent of initial injection, blood ([3]; blood 30 min, ^99mTc-DTPA, Gd-DTPA and Sm-DTPA simultaneously administered (Example 30)): 60% of initial injection | Percent of initial injection, blood ([3]; blood 30 min after each injection, sequentially administered (Example 32)): 59% of initial injection | Percent of initial injection, blood ([3]; blood 60 min, Sm-DTPA 0.01 mg/kg i.v. administered alone (Example 29)): 28% of initial injection | Percent of initial injection, blood ([3]; blood 60 min, Sm-DTPA, La-DTPA and Eu-DTPA simultaneously administered (Example 31)): 34% of initial injection | Percent of initial injection, blood ([3]; blood 60 min, ^99mTc-DTPA, Gd-DTPA and Sm-DTPA simultaneously administered (Example 30)): 33% of initial injection | Percent of initial injection, blood ([3]; blood 60 min after each injection, sequentially administered (Example 32)): 29% of initial injection | Percent of initial injection, urine ([3]; urine 30 min, Sm-DTPA 0.01 mg/kg i.v. administered alone (Example 29)): 24% of initial injection | Percent of initial injection, urine ([3]; urine 30 min, Sm-DTPA, La-DTPA and Eu-DTPA simultaneously administered (Example 31)): 22% of initial injection | Percent of initial injection, urine ([3]; urine 30 min, ^99mTc-DTPA, Gd-DTPA and Sm-DTPA simultaneously administered (Example 30)): 26% of initial injection | Percent of initial injection, urine ([3]; urine 30 min, sequentially administered (Example 32)): 20% of initial injection | Percent of initial injection, urine ([3]; urine 180 min, Sm-DTPA 0.01 mg/kg i.v. administered alone (Example 29)): 91% of initial injection | Percent of initial injection, urine ([3]; urine 180 min, Sm-DTPA, La-DTPA and Eu-DTPA simultaneously administered (Example 31)): 90% of initial injection | Percent of initial injection, urine ([3]; urine 180 min, ^99mTc-DTPA, Gd-DTPA and Sm-DTPA simultaneously administered (Example 30)): 90% of initial injection | Percent of initial injection, urine ([3]; urine 180 min, sequentially administered (Example 32)): 89% of initial injection
